Reference: ChEMBL document CHEMBL1208714, “Dimeric cyclohexane-1,3-dione oximes inhibit wheat acetyl-CoA carboxylase and show anti-malarial activity” (Bioorg Med Chem Lett, 2010)
Active and inactive are the calls of the source. The rule behind the calls is not given here.

Key:
[1] = test system: Plasmodium falciparum; experiment: Antimalarial activity against Plasmodium falciparum D10; format: functional, organism-based
[2] = test system: acetyl-CoA carboxylase (Triticum aestivum); experiment: Inhibition of wheat ACC at 20 uM
[3] = Inhibition of maize ACC; parameters: species or system Zea mays

IC50 [1] | SMILES | inhibition [2] | IC50 [3]
6 µM | CCO/N=C(\CC)C1=C(O)CC(c2ccc(C3CC(=O)C(/C(CC)=N/OCC)=C(O)C3)cc2)CC1=O (stereo not drawn) | Active | –
12 µM | CCO/N=C(\C)C1=C(O)CC(c2ccc(C3CC(=O)C(/C(C)=N/OCC)=C(O)C3)cc2)CC1=O (stereo not drawn) | – | –
5 µM | CCC/C(=N\OCC)C1=C(O)CC(c2ccc(C3CC(=O)C(/C(CCC)=N/OCC)=C(O)C3)cc2)CC1=O (stereo not drawn) | – | –
3 µM | CCO/N=C(\CC)C1=C(O)CC(c2cccc(C3CC(=O)C(/C(CC)=N/OCC)=C(O)C3)c2)CC1=O (stereo not drawn) | – | –
2.5 µM | C=CCO/N=C(\CCC)C1=C(O)CC(c2cccc(C3CC(=O)C(/C(CCC)=N/OCC=C)=C(O)C3)c2)CC1=O (stereo not drawn) | – | –
4 µM | CCC/C(=N\OCC)C1=C(O)CC(c2cccc(C3CC(=O)C(/C(CCC)=N/OCC)=C(O)C3)c2)CC1=O (stereo not drawn) | – | –

Further lines, the compound ahead of its results:

SMILES | IC50 [1] | inhibition [2] | IC50 [3]
CCO/N=C(\CC)C1=C(O)CC(c2c(C)cc(C)c(C(C)=O)c2C)CC1=O (stereo not drawn) | > 10 µM | – | –
CCC/C(=N\OCc1ccccc1)C1=C(O)CC(c2cccc(C3CC(=O)C(/C(CCC)=N/OCc4ccccc4)=C(O)C3)c2)CC1=O (stereo not drawn) | 12.5 µM | – | –
CCC/C(=N\OC(c1ccccc1)c1ccccc1)C1=C(O)CC(c2cccc(C3CC(=O)C(/C(CCC)=N/OC(c4ccccc4)c4ccccc4)=C(O)C3)c2)CC1=O (stereo not drawn) | 25 µM | – | –
CCCC(=O)c1c(C)cc(C)c(C2CC(=O)C(/C(CC)=N/OCC)=C(O)C2)c1C (stereo not drawn) [BUTROXYDIM] | 10 µM | Active | 0.3 µM
CCSC(C)CC1CC(=O)C(/C(CC)=N/OC/C=C/Cl)=C(O)C1 (stereo not drawn) [CLETHODIM] | > 250 µM | – | 0.02 µM
CCOC(=O)C(C)Oc1ccc(Oc2cnc3cc(Cl)ccc3n2)cc1 (stereo not drawn) [QUIZALOFOP ETHYL ESTER] | > 100 µM | – | > 1 µM
CC(Oc1ccc(Oc2cnc3cc(Cl)ccc3n2)cc1)C(=O)O (stereo not drawn) [QUIZALOFOP] | > 100 µM | – | 0.016 µM
CC/C(=N\OC/C=C/Cl)C1=C(O)CC(C2CCOCC2)CC1=O (stereo not drawn) [TEPRALOXYDIM] | > 100 µM | – | 0.7 µM
CCO/N=C(\CC)C1=C(O)CC(c2c(C)cc(C)cc2C)CC1=O (stereo not drawn) [TRALKOXYDIM] | > 100 µM | – | 0.52 µM
